Assay results from article PMC8142021 (International Journal for Parasitology: Drugs and Drug …, 2021).
≈ marks a conversion by molar mass, not a printed value. Entries after “also recorded” stand apart in the source; their conditions may differ.

Key:
[1] = test system: L. infantum intracellular amastigotes in U937 macrophages; assay: In vitro macrophage infection and intracellular amastigote assay; assay type: cell-based, Leishmania infantum; conditions: infected U937 macrophages, 20 μM
[2] = ref Vandermeulen et al., 2006; cited from earlier work
[3] = Determination of aqueous solubility; assay type: physicochemical; conditions: phosphate buffer, pH 7, aqueous buffer, thermodynamic from solid
[4] = test system: L. infantum axenic amastigotes; assay: Axenic amastigote assay; assay type: cell-based, Leishmania infantum

Row | solubility thermodynamic at 72 h [3] | SMILES | activity against intracellular amastigotes (in words) [1] | also measured
1 | – | COc1ccc(S(=O)(=O)N(Cc2ccccc2)c2ccc(OC)nc2)cc1 [Compound 279, N-benzyl-4-methoxy-N-(6-methoxypyridin-3-yl)benzenesulfonamide] | inactive | –
2 | – | C[C@@H]1[C@H](O)[C@@H](C)/C=C/C=C/C=C/C=C/C=C/C=C/C=C/[C@H](O[C@@H]2O[C@H](C)[C@@H](O)[C@H](N)[C@@H]2O)C[C@@H]2O[C@](O)(C[C@@H](O)C[C@@H](O)[C@H](O)CC[C@@H](O)C[C@@H](O)CC(=O)O[C@H]1C)C[C@H](O)[C@H]2C(=O)O [Amphotericin B] | – | aqueous solubility [2]: 1 µg/mL (≈ 1.08 µM)
3 | 118 µg/mL (≈ 336 µM) | COc1cc(N)c(NS(=O)(=O)c2ccc(N(C)C)cc2)cc1OC [Compound 35, N-(2-amino-4,5-dimethoxyphenyl)-4-(dimethylamino)benzenesulfonamide] | – | –
4 | 55 µg/mL (≈ 178 µM) | COc1ccc(NS(=O)(=O)c2ccc(N)cc2)cc1OC [Compound 26, 4-Amino-N-(3,4-dimethoxyphenyl)benzenesulfonamide] | – | –
5 | – | COc1ccc(S(=O)(=O)Nc2cc(C#N)ccc2OS(=O)(=O)c2ccc(OC)cc2)cc1 [Compound 276B, 4-cyano-2-((4-methoxyphenyl)sulfonamido)phenyl 4-methoxybenzenesulfonate] | active | Selectivity index Axenic amastigotes ([4]; IC50 cellular cytotoxicity (HeLa)/IC50 antileishmanial activity): 11.5
6 | 1890 µg/mL (≈ 3110 µM) | COc1ccc(S(=O)(=O)Nc2c(C(=O)Nc3c(C(=O)O)cc(OC)c(OC)c3OC)cc(OC)c(OC)c2OC)cc1 [Compound 63B, 3,4,5-trimethoxy-2-(3,4,5-trimethoxy-2-((4-methoxyphenyl)sulfonamido)benzamido)benzoic acid] | – | –
7 | – | COc1ccc(S(=O)(=O)Nc2cc(OC)c(NC(=O)CCl)cc2OC)cc1 [Compound 129, 2-Chloro-N-(2,5-dimethoxy-4-((4-methoxyphenyl)sulfonamido)phenyl)acetamide] | active; also recorded: infection clearly interrupted | Leishmania infantum Axenic amastigotes IC50 (μM) ([4]; 48 h treatment, XTT): sub-micromolar
